Holding throughout (format): functional
Experiment [1] deals with Bacillus cereus. Description: Antibacterial activity against Bacillus cereus NCIM 2155 assessed as diameter of growth inhibition zone at 500 ug/ml after 20 hrs by agar disc diffusion method.
In experiment [2] the test system is Saccharomyces cerevisiae. The experiment in a line: Antifungal activity against Saccharomyces cerevisiae NCIM 3044 assessed as diameter of growth inhibition zone at 500 ug/ml after 4 days by agar disc diffusion method.
The test system of experiment [3] is Bacillus cereus. The experiment in a line: Antibacterial activity against Bacillus cereus NCIM 2155 assessed as diameter of growth inhibition zone at 1000 ug/ml after 20 hrs by agar disc diffusion method.
Experiment [4] relates to Staphylococcus aureus. Description: Antibacterial activity against Staphylococcus aureus MTCC 4102 assessed as diameter of growth inhibition zone at 500 ug/ml after 20 hrs by agar disc diffusion method.
For experiment [5], the system named is Escherichia coli. Description: Antibacterial activity against Escherichia coli NCIM 2931 assessed as diameter of growth inhibition zone at 500 ug/ml after 20 hrs by agar disc diffusion method.
For experiment [6], the system named is Saccharomyces cerevisiae. The experiment in a line: Antifungal activity against Saccharomyces cerevisiae NCIM 3044 assessed as diameter of growth inhibition zone at 1000 ug/ml after 4 days by agar disc diffusion method.
The test system of experiment [7] is Pseudomonas aeruginosa. The experiment in a line: Antibacterial activity against Pseudomonas aeruginosa MTCC 4727 assessed as diameter of growth inhibition zone at 500 ug/ml after 20 hrs by agar disc diffusion method.
Experiment [8] concerns Candida albicans. Description: Antifungal activity against Candida albicans MTCC 183 assessed as diameter of growth inhibition zone at 1000 ug/ml after 4 days by agar disc diffusion method.
Experiment [9] deals with Candida albicans. The experiment in a line: Antifungal activity against Candida albicans MTCC 183 assessed as diameter of growth inhibition zone at 500 ug/ml after 4 days by agar disc diffusion method.
Experiment [10] has as its system Staphylococcus aureus. Description: Antibacterial activity against Staphylococcus aureus MTCC 4102 assessed as diameter of growth inhibition zone at 1000 ug/ml after 20 hrs by agar disc diffusion method.
The subject of experiment [11] is Pseudomonas aeruginosa. Description: Antibacterial activity against Pseudomonas aeruginosa MTCC 4727 assessed as diameter of growth inhibition zone at 1000 ug/ml after 20 hrs by agar disc diffusion method.
Experiment [12] deals with Escherichia coli. Description: Antibacterial activity against Escherichia coli NCIM 2931 assessed as diameter of growth inhibition zone at 1000 ug/ml after 20 hrs by agar disc diffusion method.

Active and inactive are the calls of the source. The rule behind the calls is not given here.

Five molecules from ChEMBL document CHEMBL3232991, “New polyfunctional imidazo[4,5-C]pyridine motifs: synthesis, crystal studies, docking studies and antimicrobial evaluation” (Eur J Med Chem, 2014) can be followed below.

On to `N#CC1CCCN(c2ncc(-c3cccc(F)c3)c3[nH]c(Cc4cc(F)ccc4F)nc23)C1` (stereo not given), for which the “diameter of the inhibition zone (DIZ)” value in the experiment on Bacillus cereus [1], with Saccharomyces cerevisiae [2], in the experiment with Bacillus cereus [3], in the experiment on Staphylococcus aureus [4], with Escherichia coli [5] and in the experiment on Saccharomyces cerevisiae [6] was “inactive” each time. Further, the “diameter of the inhibition zone (DIZ)” value with Pseudomonas aeruginosa [7], in the experiment with Candida albicans [8], in the experiment on Candida albicans [9], with Staphylococcus aureus [10], in the experiment with Pseudomonas aeruginosa [11] and in the experiment with Escherichia coli [12] was “inactive” in each case.

For the molecule `N#CC1CCCN(c2ncc(-c3cccc(F)c3)c3[nH]c(C4CCCCC4)nc23)C1` (stereo not given), the “diameter of the inhibition zone (DIZ)” value with Bacillus cereus [1], in the experiment on Saccharomyces cerevisiae [2], in the experiment with Bacillus cereus [3], in the experiment with Staphylococcus aureus [4], with Saccharomyces cerevisiae [6] and in the experiment on Pseudomonas aeruginosa [7] was “inactive” in each case. Moreover, the “diameter of the inhibition zone (DIZ)” value with Candida albicans [8], in the experiment on Candida albicans [9], with Staphylococcus aureus [10] and with Pseudomonas aeruginosa [11] was “inactive” in each case. In addition, the zone of inhibition at 500 µg/mL with Escherichia coli [5] (NCIM 2931, 20 h, read-out: DIZ) came to 6 mm. Also, the zone of inhibition at 1000 µg/mL in the experiment with Escherichia coli [12] (NCIM 2931, 20 h, read-out: DIZ) worked out at 12.5 mm.

For the molecule `CC(C)(C)Cc1nc2c(N3CCCC(C#N)C3)ncc(-c3cccc(F)c3)c2[nH]1` (stereo not given), the “diameter of the inhibition zone (DIZ)” value with Bacillus cereus [1], in the experiment with Saccharomyces cerevisiae [2], with Bacillus cereus [3], with Staphylococcus aureus [4], with Escherichia coli [5] and with Saccharomyces cerevisiae [6] was “inactive” throughout. For the same molecule, the “diameter of the inhibition zone (DIZ)” value in the experiment with Pseudomonas aeruginosa [7], with Candida albicans [8], with Candida albicans [9], in the experiment on Staphylococcus aureus [10], with Pseudomonas aeruginosa [11] and in the experiment on Escherichia coli [12] was “inactive” throughout.

For the molecule `CCC(CC)c1nc2c(N3CCCC(C#N)C3)ncc(-c3cccc(F)c3)c2[nH]1` (stereo not given), the “diameter of the inhibition zone (DIZ)” value in the experiment on Bacillus cereus [1], in the experiment with Saccharomyces cerevisiae [2], in the experiment on Bacillus cereus [3], with Staphylococcus aureus [4], with Escherichia coli [5] and in the experiment with Saccharomyces cerevisiae [6] was “inactive” each time. The “diameter of the inhibition zone (DIZ)” value in the experiment with Pseudomonas aeruginosa [7], in the experiment with Candida albicans [8], in the experiment with Candida albicans [9], in the experiment on Staphylococcus aureus [10], in the experiment on Pseudomonas aeruginosa [11] and with Escherichia coli [12] was “inactive” throughout.

On to `N#CC1CCCN(c2ncc(-c3cccc(F)c3)c3[nH]c(CCc4ccccc4)nc23)C1` (stereo not given), for which, in the experiment on Bacillus cereus [1] (NCIM 2155, 20 h, read-out: DIZ), the zone of inhibition at 500 µg/mL was 6.7 mm. For the same molecule, the “diameter of the inhibition zone (DIZ)” value in the experiment on Saccharomyces cerevisiae [2], in the experiment on Staphylococcus aureus [4], in the experiment on Escherichia coli [5], in the experiment on Saccharomyces cerevisiae [6], in the experiment with Pseudomonas aeruginosa [7] and in the experiment on Candida albicans [8] was “inactive” each time. Besides, the “diameter of the inhibition zone (DIZ)” value in the experiment on Candida albicans [9], with Staphylococcus aureus [10], in the experiment with Pseudomonas aeruginosa [11] and with Escherichia coli [12] was “inactive” in each case. In addition, the zone of inhibition at 1000 µg/mL in the experiment with Bacillus cereus [3] (NCIM 2155, 20 h, read-out: DIZ) worked out at 13 mm.
